Reference: patent publication US8921362B2, “6,7-dialkoxy quinazoline derivatives and methods of treating drug resistant and other tumors” (Natco Pharma Limited, priority 2008, dated 2014)

Columns and labels:
Experiment in all cases: KinomeScan
Type in all cases: binding
Conditions in all cases: read-out: % Ctrl @ 10000 nM
NEK5 = molecular target: T1, NEK5 (Homo sapiens, UniProt Q6P3R8)
T1 construct: host or cells: T7 phage grown in E. coli host derived from BL21
Method: (§1) Kinase assays: Assays were performed as described in Fabian et al. (2005) Nature Biotechnology, vol. 23, p. 329. Kinase-tagged T7 phage strains were grown in parallel in 24 or 96-well blocks in an E. coli host derived from the BL21 strain. E. coli were grown to log-phase and infected with T7 phage from a frozen stock (multiplicity of infection ˜0.1) and incubated with shaking at 32° C. until lysis (−90 minutes). The lysates were centrifuged and filtered to remove cell debris. […] The liganded beads were blocked with excess biotin and washed with blocking buffer (SeaBlock (Pierce), 1% BSA, 0.05% Tween 20, 1 mM DTT) to remove unbound ligand and to reduce non-specific phage binding.
(§2) Test compounds were prepared as 40× stocks in DMSO and diluted into the aqueous environment. 2.5% DMSO was added to control assays lacking a test compound. All reactions were performed in polystyrene 96-well plates that had been pretreated with blocking buffer in a final volume of 0.04 ml. […] The phage titer in the eluates was measured by quantitative PCR.

PIK3CG = molecular target: T2, PIK3CG (Homo sapiens, UniProt P48736)
T2 construct: host or cells: T7 phage in E. coli host derived from BL21
Method: as §1, §2

PAK3 = molecular target: T3, PAK3 (Homo sapiens, UniProt O75914)
T3 construct: host or cells: E. coli host derived from BL21, infected with T7 phage
Method: as §1, §2

RIPK4 = molecular target: T4, RIPK4 (Homo sapiens, UniProt P57078)
T4 construct: host or cells: E. coli host derived from BL21, T7 phage display
Method: as §1, §2

TAK1 = molecular target: T5, TAK1 (Homo sapiens, UniProt O43318)
T5 construct: host or cells: T7 phage grown in E. coli (BL21-derived)
Method: as §1, §2

ZAK = molecular target: T6, ZAK (Homo sapiens, UniProt Q9NYL2)
T6 construct: host or cells: T7 phage grown in an E. coli host derived from BL21
Method: as §1, §2

ABL1(H396P) = molecular target: T7, ABL1(H396P) (Homo sapiens, UniProt P00519, H396P)
T7 construct: host or cells: E. coli (BL21-derived), T7 phage lysate
Method: as §1, §2

FLT3 = molecular target: T8, FLT3 (Homo sapiens, UniProt P36888)
T8 construct: host or cells: T7 phage in E. coli host derived from BL21
Method: as §1, §2

EGFR(L747-T751del, Sins) = molecular target: T9, EGFR(L747-T751del, Sins) (Homo sapiens, UniProt P00533, DEL747-750/T751S)
T9 construct: purchased Ambit Biosciences Corp; host or cells: T7 phage in E. coli host derived from BL21
Method: as §1, §2

PLK3 = molecular target: T10, PLK3 (Homo sapiens, UniProt Q9H4B4)
T10 construct: host or cells: T7 phage in E. coli host derived from BL21
Method: as §1, §2

HPK1 = molecular target: T11, HPK1 (Homo sapiens, UniProt Q92918)
T11 construct: host or cells: T7 phage in E. coli host derived from BL21
Method: as §1, §2

MYO3A = molecular target: T12, MYO3A (Homo sapiens, UniProt Q8NEV4)
T12 construct: host or cells: T7 phage grown in E. coli host derived from BL21
Method: as §1, §2

ITK = molecular target: T13, ITK (Homo sapiens, UniProt Q08881)
T13 construct: host or cells: T7 phage grown in E. coli host derived from BL21
Method: as §1, §2

PKAC-alpha = molecular target: T14, PKAC-alpha (Homo sapiens, UniProt P17612)
T14 construct: host or cells: T7 phage in E. coli host derived from BL21
Method: as §1, §2

CLK1 = molecular target: T15, CLK1 (Homo sapiens, UniProt P49759)
T15 construct: host or cells: T7 phage in E. coli host derived from BL21
Method: as §1, §2

[1] = molecular target: T16, RPS6KA3(Kin.Dom.-1-N-terminal) (Homo sapiens, UniProt P51812)
T16 construct: RPS6KA3(Kin.Dom.-1-N-terminal); host or cells: E. coli host derived from BL21, T7 phage display
Method: as §1, §2

[2] = molecular target: T17, TYK2(JH2domain-pseudokinase) (Homo sapiens, UniProt P29597)
T17 construct: TYK2(JH2domain-pseudokinase); host or cells: E. coli host derived from BL21, T7 phage
Method: as §1, §2

PRKCH = molecular target: T18, PRKCH (Homo sapiens, UniProt P24723)
T18 construct: host or cells: T7 phage in E. coli host derived from BL21
Method: as §1, §2

[3] = molecular target: T19, RPS6KA2(Kin.Dom.-2-C-terminal) (Homo sapiens, UniProt Q15349)
T19 construct: RPS6KA2(Kin.Dom.-2-C-terminal); host or cells: E. coli host derived from BL21, T7 phage display
Method: as §1, §2

TEC = molecular target: T20, TEC (Homo sapiens, UniProt P42680)
T20 construct: host or cells: T7 phage grown in E. coli (BL21-derived)
Method: as §1, §2

[4] = molecular target: T21, JAK3(JH1domain- catalytic) (Homo sapiens, UniProt P52333)
T21 construct: JAK3(JH1domain- catalytic); host or cells: T7 phage grown in E. coli host derived from BL21
Method: as §1, §2

MYLK2 = molecular target: T22, MYLK2 (Homo sapiens, UniProt Q9H1R3)
T22 construct: host or cells: T7 phage grown in E. coli host derived from BL21
Method: as §1, §2

BRAF(V600E) = molecular target: T23, BRAF(V600E) (Homo sapiens, UniProt P15056, V600E)
T23 construct: host or cells: E. coli host derived from BL21
Method: as §1, §2

ULK1 = molecular target: T24, ULK1 (Homo sapiens, UniProt O75385)
T24 construct: host or cells: E. coli host derived from BL21, T7 phage
Method: as §1, §2

[5] = molecular target: T25, RPS6KA5(Kin.Dom.-2-C-terminal) (Homo sapiens, UniProt O75582)
T25 construct: RPS6KA5(Kin.Dom.-2-C-terminal); host or cells: E. coli host derived from BL21, T7 phage display
Method: as §1, §2

FAK = molecular target: T26, FAK (Homo sapiens, UniProt Q05397)
T26 construct: purchased Ambit Biosciences Corp; host or cells: T7 phage in E. coli host derived from BL21
Method: as §1, §2

WEE2 = molecular target: T27, WEE2 (Homo sapiens, UniProt P0C1S8)
T27 construct: host or cells: E. coli host derived from BL21, T7 phage
Method: as §1, §2

MARK2 = molecular target: T28, MARK2 (Homo sapiens, UniProt Q7KZI7)
T28 construct: host or cells: E. coli host derived from the BL21 strain, infected with T7 phage
Method: as §1, §2

AXL = molecular target: T29, AXL (Homo sapiens, UniProt P30530)
T29 construct: host or cells: E. coli host derived from BL21
Method: as §1, §2

T5 sequence (O43318 whole entry): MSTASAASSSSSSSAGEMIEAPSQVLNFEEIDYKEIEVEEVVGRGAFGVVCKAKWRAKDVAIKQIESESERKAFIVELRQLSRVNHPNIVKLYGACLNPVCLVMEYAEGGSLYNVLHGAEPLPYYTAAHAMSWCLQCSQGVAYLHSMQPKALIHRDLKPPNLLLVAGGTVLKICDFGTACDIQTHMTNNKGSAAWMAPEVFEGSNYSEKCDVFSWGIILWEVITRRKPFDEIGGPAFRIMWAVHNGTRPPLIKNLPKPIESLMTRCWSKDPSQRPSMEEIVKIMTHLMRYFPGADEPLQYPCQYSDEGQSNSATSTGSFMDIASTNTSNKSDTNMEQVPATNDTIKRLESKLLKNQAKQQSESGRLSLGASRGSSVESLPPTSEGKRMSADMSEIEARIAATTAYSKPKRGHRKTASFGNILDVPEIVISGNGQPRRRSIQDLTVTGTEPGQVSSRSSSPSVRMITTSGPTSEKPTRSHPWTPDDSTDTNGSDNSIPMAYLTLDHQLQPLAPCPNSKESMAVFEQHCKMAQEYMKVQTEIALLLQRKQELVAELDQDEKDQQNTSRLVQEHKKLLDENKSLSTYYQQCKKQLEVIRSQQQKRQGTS
T26 sequence (Q05397 whole entry): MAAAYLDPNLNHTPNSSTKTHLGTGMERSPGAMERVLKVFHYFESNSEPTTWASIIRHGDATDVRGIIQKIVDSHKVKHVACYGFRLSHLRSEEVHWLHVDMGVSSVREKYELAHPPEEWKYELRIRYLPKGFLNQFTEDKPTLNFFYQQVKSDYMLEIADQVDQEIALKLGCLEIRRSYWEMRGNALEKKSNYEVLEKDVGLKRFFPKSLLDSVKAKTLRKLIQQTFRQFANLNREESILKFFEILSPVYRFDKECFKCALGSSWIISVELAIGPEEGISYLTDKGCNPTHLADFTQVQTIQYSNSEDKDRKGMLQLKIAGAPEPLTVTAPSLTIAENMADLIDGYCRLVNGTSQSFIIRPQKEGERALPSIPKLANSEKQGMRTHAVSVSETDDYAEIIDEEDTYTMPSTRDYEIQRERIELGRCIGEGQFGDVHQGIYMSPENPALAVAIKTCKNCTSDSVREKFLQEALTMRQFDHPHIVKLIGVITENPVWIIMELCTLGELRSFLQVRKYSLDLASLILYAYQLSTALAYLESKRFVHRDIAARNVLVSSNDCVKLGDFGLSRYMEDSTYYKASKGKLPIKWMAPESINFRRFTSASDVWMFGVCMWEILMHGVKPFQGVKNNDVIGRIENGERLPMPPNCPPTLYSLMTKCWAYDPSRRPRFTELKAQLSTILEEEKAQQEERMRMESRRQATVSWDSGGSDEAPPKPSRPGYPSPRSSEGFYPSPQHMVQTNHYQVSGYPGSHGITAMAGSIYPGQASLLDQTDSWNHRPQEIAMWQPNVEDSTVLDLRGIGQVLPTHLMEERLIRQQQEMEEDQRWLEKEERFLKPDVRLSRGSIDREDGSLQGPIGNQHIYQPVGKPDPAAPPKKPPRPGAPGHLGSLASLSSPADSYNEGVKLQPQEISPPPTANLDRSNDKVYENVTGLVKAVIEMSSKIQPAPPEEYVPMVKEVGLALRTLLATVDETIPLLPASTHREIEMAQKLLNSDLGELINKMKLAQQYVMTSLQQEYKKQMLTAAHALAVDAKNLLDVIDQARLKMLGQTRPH
T21 sequence (P52333 822-1111 limits assumed): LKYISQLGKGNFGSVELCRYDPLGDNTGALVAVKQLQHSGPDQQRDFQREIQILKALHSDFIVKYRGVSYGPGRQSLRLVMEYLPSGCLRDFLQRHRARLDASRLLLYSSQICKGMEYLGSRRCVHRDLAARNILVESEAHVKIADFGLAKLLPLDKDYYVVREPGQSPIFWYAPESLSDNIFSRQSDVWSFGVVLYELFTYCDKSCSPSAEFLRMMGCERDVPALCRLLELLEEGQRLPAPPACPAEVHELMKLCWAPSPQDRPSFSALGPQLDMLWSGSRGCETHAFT
T9 sequence (P00533 with tags, fused parts or gaps DEL747-750/T751S): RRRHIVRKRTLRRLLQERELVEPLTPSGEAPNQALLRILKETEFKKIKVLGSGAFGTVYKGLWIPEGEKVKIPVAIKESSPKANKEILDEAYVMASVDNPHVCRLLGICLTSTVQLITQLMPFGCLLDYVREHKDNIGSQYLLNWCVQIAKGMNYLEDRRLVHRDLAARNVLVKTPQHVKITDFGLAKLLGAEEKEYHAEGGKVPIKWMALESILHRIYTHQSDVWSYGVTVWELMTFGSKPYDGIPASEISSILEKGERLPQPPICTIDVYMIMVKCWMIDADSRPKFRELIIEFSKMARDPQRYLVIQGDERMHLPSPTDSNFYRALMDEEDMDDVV
T2 sequence (P48736 whole entry): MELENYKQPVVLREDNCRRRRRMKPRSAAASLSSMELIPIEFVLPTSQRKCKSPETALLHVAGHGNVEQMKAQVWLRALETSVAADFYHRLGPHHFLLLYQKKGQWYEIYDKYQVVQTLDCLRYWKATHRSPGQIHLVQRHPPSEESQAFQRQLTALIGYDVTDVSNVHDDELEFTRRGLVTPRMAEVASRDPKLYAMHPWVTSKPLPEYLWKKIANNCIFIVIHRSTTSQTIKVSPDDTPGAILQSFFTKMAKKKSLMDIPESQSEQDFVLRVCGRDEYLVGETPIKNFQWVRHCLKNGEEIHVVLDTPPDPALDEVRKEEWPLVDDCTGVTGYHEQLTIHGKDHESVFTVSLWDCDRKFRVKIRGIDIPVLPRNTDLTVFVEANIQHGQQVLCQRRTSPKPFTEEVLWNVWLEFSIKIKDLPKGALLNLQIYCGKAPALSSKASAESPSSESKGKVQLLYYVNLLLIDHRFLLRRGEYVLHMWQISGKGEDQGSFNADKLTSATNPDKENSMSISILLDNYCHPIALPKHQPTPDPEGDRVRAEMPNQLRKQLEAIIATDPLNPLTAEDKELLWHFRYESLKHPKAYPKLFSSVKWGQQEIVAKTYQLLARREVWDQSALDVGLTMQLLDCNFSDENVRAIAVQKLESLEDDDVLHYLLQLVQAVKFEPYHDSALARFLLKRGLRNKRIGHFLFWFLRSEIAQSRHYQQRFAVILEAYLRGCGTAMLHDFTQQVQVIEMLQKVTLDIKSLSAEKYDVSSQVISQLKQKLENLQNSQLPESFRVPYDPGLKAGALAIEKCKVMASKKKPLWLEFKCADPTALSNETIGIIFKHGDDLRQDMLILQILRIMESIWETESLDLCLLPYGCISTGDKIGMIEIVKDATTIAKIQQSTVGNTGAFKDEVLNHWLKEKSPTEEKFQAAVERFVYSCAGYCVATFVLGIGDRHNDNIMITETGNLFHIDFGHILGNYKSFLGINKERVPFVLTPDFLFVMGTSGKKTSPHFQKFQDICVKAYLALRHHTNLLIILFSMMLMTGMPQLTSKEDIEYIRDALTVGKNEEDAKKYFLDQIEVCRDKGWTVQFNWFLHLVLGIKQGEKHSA
T4 sequence (P57078 whole entry): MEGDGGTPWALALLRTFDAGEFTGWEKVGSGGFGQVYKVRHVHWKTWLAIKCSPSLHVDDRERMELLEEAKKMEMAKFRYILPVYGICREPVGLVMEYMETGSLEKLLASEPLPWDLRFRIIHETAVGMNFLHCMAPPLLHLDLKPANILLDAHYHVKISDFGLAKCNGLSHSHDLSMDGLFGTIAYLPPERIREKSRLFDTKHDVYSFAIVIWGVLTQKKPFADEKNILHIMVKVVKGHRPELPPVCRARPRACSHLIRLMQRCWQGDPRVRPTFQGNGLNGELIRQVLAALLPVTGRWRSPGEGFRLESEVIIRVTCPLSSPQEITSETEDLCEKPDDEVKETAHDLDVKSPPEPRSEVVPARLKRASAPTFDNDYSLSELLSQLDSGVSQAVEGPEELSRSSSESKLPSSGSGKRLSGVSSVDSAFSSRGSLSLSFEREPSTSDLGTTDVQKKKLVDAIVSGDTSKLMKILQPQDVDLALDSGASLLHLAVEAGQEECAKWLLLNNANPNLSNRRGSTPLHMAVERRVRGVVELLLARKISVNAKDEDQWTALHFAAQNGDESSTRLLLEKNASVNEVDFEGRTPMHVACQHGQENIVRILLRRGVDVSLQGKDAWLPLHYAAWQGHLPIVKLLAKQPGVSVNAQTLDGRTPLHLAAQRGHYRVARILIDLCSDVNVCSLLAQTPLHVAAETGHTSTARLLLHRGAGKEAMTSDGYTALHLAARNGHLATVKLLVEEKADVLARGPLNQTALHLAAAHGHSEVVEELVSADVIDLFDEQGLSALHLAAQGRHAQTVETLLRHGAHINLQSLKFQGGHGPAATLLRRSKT
T6 sequence (Q9NYL2 whole entry): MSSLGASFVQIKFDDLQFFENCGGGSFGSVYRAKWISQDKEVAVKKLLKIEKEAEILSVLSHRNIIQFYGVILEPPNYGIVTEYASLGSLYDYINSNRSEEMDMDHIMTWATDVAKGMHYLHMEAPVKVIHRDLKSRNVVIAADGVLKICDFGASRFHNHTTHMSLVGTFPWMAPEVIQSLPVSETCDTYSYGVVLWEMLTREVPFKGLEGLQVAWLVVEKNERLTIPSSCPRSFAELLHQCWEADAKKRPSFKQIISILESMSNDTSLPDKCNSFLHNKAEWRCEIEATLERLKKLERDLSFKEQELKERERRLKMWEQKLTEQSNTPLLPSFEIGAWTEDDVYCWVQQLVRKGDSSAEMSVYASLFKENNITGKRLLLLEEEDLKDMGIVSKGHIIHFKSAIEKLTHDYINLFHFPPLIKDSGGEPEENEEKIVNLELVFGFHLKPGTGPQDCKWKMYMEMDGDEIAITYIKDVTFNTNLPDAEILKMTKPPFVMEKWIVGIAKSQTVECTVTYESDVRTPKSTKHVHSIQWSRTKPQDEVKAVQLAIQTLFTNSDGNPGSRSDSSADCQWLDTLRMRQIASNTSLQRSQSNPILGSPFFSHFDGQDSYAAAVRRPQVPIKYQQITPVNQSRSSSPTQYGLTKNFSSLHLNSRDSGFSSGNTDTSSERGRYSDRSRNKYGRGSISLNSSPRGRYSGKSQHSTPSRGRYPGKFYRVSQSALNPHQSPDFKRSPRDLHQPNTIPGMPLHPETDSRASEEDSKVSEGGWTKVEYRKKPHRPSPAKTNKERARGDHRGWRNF

With `C#Cc1cccc(Nc2ncnc3cc(OC)c(OCCCN4CCOCC4)cc23)c1` [NRC-2694, N-(3-ethynylphenyl)-7-methoxy-6-[3-(4-morpholinyl)propoxy]-4-quinazolinamine] as the compound, how does the remaining binding at 10 µM (NEK5) read?
The remaining binding at 10 µM was 94%.

And the remaining binding at 10 µM (PIK3CG)?
Its remaining binding at 10 µM is 78%.

And the remaining binding at 10 µM (PAK3)?
Its remaining binding at 10 µM is 55%.

And the remaining binding at 10 µM (RIPK4)?
The remaining binding at 10 µM was 96%.

And the remaining binding at 10 µM (TAK1)?
The remaining binding at 10 µM was 66%.

What about the remaining binding at 10 µM (ZAK) of the same compound?
Its remaining binding at 10 µM is 74%.

What about the remaining binding at 10 µM (ABL1(H396P)) of the same compound?
The remaining binding at 10 µM was 34%.

What about the remaining binding at 10 µM (FLT3) of the same compound?
Its remaining binding at 10 µM is 49%.

And the remaining binding at 10 µM (EGFR(L747-T751del, Sins))?
Its remaining binding at 10 µM is 0%.

And the remaining binding at 10 µM (PLK3)?
Its remaining binding at 10 µM is 97%.

And the remaining binding at 10 µM (HPK1)?
The remaining binding at 10 µM was 47%.

And the remaining binding at 10 µM (MYO3A)?
Its remaining binding at 10 µM is 70%.

What about the remaining binding at 10 µM (ITK) of the same compound?
Its remaining binding at 10 µM is 82%.

And the remaining binding at 10 µM (PKAC-alpha)?
Its remaining binding at 10 µM is 100%.

What about the remaining binding at 10 µM (CLK1) of the same compound?
Its remaining binding at 10 µM is 31%.

What about the remaining binding at 10 µM [1] of the same compound?
The remaining binding at 10 µM was 94%.

What about the remaining binding at 10 µM [2] of the same compound?
Its remaining binding at 10 µM is 23%.

What about the remaining binding at 10 µM (PRKCH) of the same compound?
Its remaining binding at 10 µM is 83%.

What about the remaining binding at 10 µM [3] of the same compound?
The remaining binding at 10 µM was 78%.

And the remaining binding at 10 µM (TEC)?
The remaining binding at 10 µM was 90%.

And the remaining binding at 10 µM [4]?
The remaining binding at 10 µM was 72%.

And the remaining binding at 10 µM (MYLK2)?
Its remaining binding at 10 µM is 4.8%.

What about the remaining binding at 10 µM (BRAF(V600E)) of the same compound?
The remaining binding at 10 µM was 73%.

And the remaining binding at 10 µM (ULK1)?
Its remaining binding at 10 µM is 100%.

And the remaining binding at 10 µM [5]?
The remaining binding at 10 µM was 57%.

What about the remaining binding at 10 µM (FAK) of the same compound?
The remaining binding at 10 µM was 85%.

What about the remaining binding at 10 µM (WEE2) of the same compound?
Its remaining binding at 10 µM is 53%.

What about the remaining binding at 10 µM (MARK2) of the same compound?
The remaining binding at 10 µM was 70%.

And the remaining binding at 10 µM (AXL)?
The remaining binding at 10 µM was 25%.
